Laboratory results published in patent publication US20090068290A1, “BIFEPRUNOX DOSES FOR TREATING SCHIZOPHRENIA” (priority 2006, published 2009).

Key:
Format in all cases: in vivo, human
[1] = test system: adult subjects with schizophrenia; test: Adverse events (TEAE, SAE, discontinuation, EPS-related TEAE, anticholinergic use), Clinical Study One; conditions: for safety and tolerability: bifeprunox 5, 10, 20 mg, 6 weeks
Method: METHODOLOGY: This was a randomized, double-blind, fixed-dose, placebo-controlled, risperidone-referenced, parallel group, multi-center study in adult subjects with schizophrenia. There were five treatment groups in this study. […] Study medication was administered once daily. After Baseline measurements were performed, the titration phase was begun. Bifeprunox treated subjects were titrated up to 5 mg, 10 mg or 20 mg according to a standardized titration schedule (Day 1: 0.125 mg, Day 2: 0.25 mg, Day 3: 0.5 mg, Day 4: 1.0 mg, Day 5: 2.0 mg, Day 6: 5.0 mg, Day 7: 10.0 mg, Day 8: 20 mg).

[2] = test system: adult subjects with schizophrenia; test: BPRS total score, Clinical Study Two; conditions: for Change from Baseline in BPRS Total Score, Mean (SD) / Change from Baseline in BPRS Total Score, Median / Change from Baseline in BPRS Total Score, Trt Effect (bifeprunox—placebo) / mean change (SD) from Baseline to Endpoint in BPRS total score: LOCF; for Change from Baseline in BPRS Total Score, Mean (SD) / Change from Baseline in BPRS Total Score, Median / Change from Baseline in BPRS Total Score, Trt Effect (bifeprunox—placebo): ITT population; for BPRS total score, treatment effect (bifeprunox—placebo): Endpoint LOCF; for mean change (SD) from Baseline to Endpoint in BPRS total score: ITT
Method: Rating scale assessments were performed weekly, except for week 5, to measure the change from baseline to endpoint of the PANSS total score. Other assessments included: PANSS positive symptom subscale score, PANSS negative symptom subscale score, PANSS general pschopathology subscale score, BPRS total score, BPRS psychosis score, the CGI-S score, the CGI-I score, responder rates based on the PANSS total score, and the Calgary Depression Scale for Schizophrenia (CDSS). […]
Subjects who completed this study had the option to continue in the long-term. […] Blood samples were also obtained at Screening/Baseline, Week 3, and Week 6 for clinical laboratory assessments.

[3] = test system: adult subjects with schizophrenia; test: CGI Severity of Illness score, Clinical Study Three; conditions: for CGI Severity of Illness Score, Trt Effect / Change from Baseline in CGI Severity of Illness Score, Mean (SD) / Change from Baseline in CGI Severity of Illness Score, Median / mean change (SD) from Baseline to Endpoint in CGI severity of illness score: LOCF; for CGI severity of illness score, treatment effect (bifeprunox—placebo): Endpoint LOCF; for mean change (SD) from Baseline to Endpoint in CGI severity of illness score: ITT
Description: (§1) SECONDARY OBJECTIVES To assess the efficacy of bifeprunox in treating schizophrenia using the Positive Symptom sub-scale score of the PANSS, the Negative Symptom sub-scale score of the PANSS, the General Psychopathology sub-scale of the PANSS, Brief Psychiatric Rating Scale (BPRS) total score derived from the PANSS, BPRS psychosis score derived from the PANSS, the Clinical Global Impression Severity of Illness score (CGI-S), the Clinical Global Impression Improvement score (CGI-I), CGI-I responder rate, PANSS responder rate based on the PANSS total score, Calgary Depression Scale for Schizophrenia (CDSS), and Subject Satisfaction rating.
(§2) There were four treatment arms in this study, approximately 144 subjects per arm. […] After completing the Single-Blind Placebo Lead-in Period of at least three days, bifeprunox-treated subjects were titrated from 0.25 mg up to 20 mg/day or 30 mg/day according to a standardized titration scheme over a seven- or eight-day period, respectively. When the assigned dose was reached, subjects were maintained at that dose for the remainder of the six week treatment period. […] Subjects were hospitalized (if not already inpatients) after eligibility for study entry was verified, starting from the Screening Visit until at least 10 days after Baseline. Subjects could be hospitalized longer than 10 days if considered medically necessary by the Investigator. Rating scale assessments for efficacy and abnormal movement disorders were done weekly except for Week 5. […] Subject satisfaction with study medication was assessed at Week 6.

[4] = test system: adult subjects with schizophrenia; test: Calgary Depression Scale for Schizophrenia (CDSS), Clinical Study Three; conditions: for CDSS Total Score, Trt Effect / Change from Baseline in CDSS Total Score, Mean (SD) / Change from Baseline in CDSS Total Score, Median / mean change (SD) from Baseline to Endpoint in CDSS score: LOCF; for CDSS score, treatment effect (bifeprunox, placebo): Endpoint LOCF; for mean change (SD) from Baseline to Endpoint in CDSS score: ITT
Description: as §1, §2

[5] = Bifeprunox 30 mg, Week 6/Endpoint
[6] = Bifeprunox 40 mg, Week 6/Endpoint

O=c1[nH]c2cccc(N3CCN(Cc4cccc(-c5ccccc5)c4)CC3)c2o1 [Bifeprunox, 7-[4-([1,1′-biphenyl]-3-ylmethyl)-1-piperazinyl]-2(3H)-benzoxazolone]
subjects with at least one TEAE ([1]; bifeprunox 5 mg): 89%
subjects with at least one AE that led to discontinuation ([1]; bifeprunox 10 mg): 14%
subjects with at least one TEAE ([1]; bifeprunox 10 mg): 87%
incidence of aggravated schizophrenia NOS (SAE) ([1]; bifeprunox 20 mg): 7%
subjects with at least one AE that led to discontinuation ([1]; bifeprunox 20 mg): 10%
subjects with at least one TEAE ([1]; bifeprunox 20 mg): 83%
subjects with at least one severe TEAE ([1]; bifeprunox 20 mg): 10%
suicide attempt ([1]; bifeprunox 20 mg): 2%
safety and tolerability [1]: safe and well tolerated at all dose levels
safety and tolerability ([1]; listed as bifeprunox): safe and well tolerated
subjects with at least one SAE ([1]; bifeprunox groups (5, 10, 20 mg)): 12-15%
rates of EPS ([1]; bifeprunox, 6 weeks (Example 4)): comparable to placebo
Change from Baseline in BPRS Total Score, Mean (SD) ([2]; Bifeprunox 30 mg, Week 1): −3.8 (7.0)
Change from Baseline in BPRS Total Score, Median ([2]; Bifeprunox 30 mg, Week 1): −3
Change from Baseline in BPRS Total Score, Mean (SD) ([2]; Bifeprunox 30 mg, Week 2): −7.0 (9.5)
Change from Baseline in BPRS Total Score, Median ([2]; Bifeprunox 30 mg, Week 2): −6
Change from Baseline in BPRS Total Score, Mean (SD) ([2]; Bifeprunox 30 mg, Week 3): −7.93 (10.7)
Change from Baseline in BPRS Total Score, Median ([2]; Bifeprunox 30 mg, Week 3): −6
Change from Baseline in BPRS Total Score, Mean (SD) ([2]; Bifeprunox 30 mg, Week 4): −8.2 (11.5)
Change from Baseline in BPRS Total Score, Median ([2]; Bifeprunox 30 mg, Week 4): −7
Change from Baseline in BPRS Total Score, Mean (SD) [2, 5]: −8.1 (12.3)
Change from Baseline in BPRS Total Score, Median [2, 5]: −7
Change from Baseline in BPRS Total Score, Trt Effect (bifeprunox—placebo) [2, 5]: −3.2
Change from Baseline in BPRS Total Score, Mean (SD) ([2]; Bifeprunox 40 mg, Week 1): −4.3 (7.1)
Change from Baseline in BPRS Total Score, Median ([2]; Bifeprunox 40 mg, Week 1): −4
Change from Baseline in BPRS Total Score, Mean (SD) ([2]; Bifeprunox 40 mg, Week 2): −5.5 (9.3)
Change from Baseline in BPRS Total Score, Median ([2]; Bifeprunox 40 mg, Week 2): −6
Change from Baseline in BPRS Total Score, Mean (SD) ([2]; Bifeprunox 40 mg, Week 3): −6.3 (10.3)
Change from Baseline in BPRS Total Score, Median ([2]; Bifeprunox 40 mg, Week 3): −6
Change from Baseline in BPRS Total Score, Mean (SD) ([2]; Bifeprunox 40 mg, Week 4): −5.7 (10.9)
Change from Baseline in BPRS Total Score, Median ([2]; Bifeprunox 40 mg, Week 4): −4
Change from Baseline in BPRS Total Score, Mean (SD) [2, 6]: −6.5 (11.7)
Change from Baseline in BPRS Total Score, Median [2, 6]: −5
Change from Baseline in BPRS Total Score, Trt Effect (bifeprunox—placebo) [2, 6]: −1.9
BPRS total score, treatment effect (bifeprunox—placebo) ([2]; bifeprunox 30 mg): −3.2
mean change (SD) from Baseline to Endpoint in BPRS total score ([2]; bifeprunox 30 mg): −8.1 (12.3)
BPRS total score, treatment effect (bifeprunox—placebo) ([2]; bifeprunox 40 mg): −1.9
mean change (SD) from Baseline to Endpoint in BPRS total score ([2]; bifeprunox 40 mg): −6.5 (11.7)
CGI Severity of Illness Score, Trt Effect ([3]; 20 mg versus placebo, Week 6/Endpoint): −0.13
Change from Baseline in CGI Severity of Illness Score, Mean (SD) ([3]; 20 mg, Week 1): −0.23 (0.63)
Change from Baseline in CGI Severity of Illness Score, Median ([3]; 20 mg, Week 1): 0.0
Change from Baseline in CGI Severity of Illness Score, Mean (SD) ([3]; 20 mg, Week 2): −0.48 (0.81)
Change from Baseline in CGI Severity of Illness Score, Median ([3]; 20 mg, Week 2): 0.0
Change from Baseline in CGI Severity of Illness Score, Mean (SD) ([3]; 20 mg, Week 3): −0.59 (0.89)
Change from Baseline in CGI Severity of Illness Score, Median ([3]; 20 mg, Week 3): −1.0
Change from Baseline in CGI Severity of Illness Score, Mean (SD) ([3]; 20 mg, Week 4): −0.65 (0.95)
Change from Baseline in CGI Severity of Illness Score, Median ([3]; 20 mg, Week 4): −1.0
Change from Baseline in CGI Severity of Illness Score, Mean (SD) ([3]; 20 mg, Week 6/Endpoint): −0.63 (0.98)
Change from Baseline in CGI Severity of Illness Score, Median ([3]; 20 mg, Week 6/Endpoint): −1.0
CGI Severity of Illness Score, Trt Effect ([3]; 30 mg versus placebo, Week 6/Endpoint): −0.09
Change from Baseline in CGI Severity of Illness Score, Mean (SD) ([3]; 30 mg, Week 1): −0.26 (0.60)
Change from Baseline in CGI Severity of Illness Score, Median ([3]; 30 mg, Week 1): 0.0
Change from Baseline in CGI Severity of Illness Score, Mean (SD) ([3]; 30 mg, Week 2): −0.41 (0.76)
Change from Baseline in CGI Severity of Illness Score, Median ([3]; 30 mg, Week 2): 0.0
Change from Baseline in CGI Severity of Illness Score, Mean (SD) ([3]; 30 mg, Week 3): −0.50 (0.90)
Change from Baseline in CGI Severity of Illness Score, Median ([3]; 30 mg, Week 3): 0.0
Change from Baseline in CGI Severity of Illness Score, Mean (SD) ([3]; 30 mg, Week 4): −0.57 (0.89)
Change from Baseline in CGI Severity of Illness Score, Median ([3]; 30 mg, Week 4): −1.0
Change from Baseline in CGI Severity of Illness Score, Mean (SD) ([3]; 30 mg, Week 6/Endpoint): −0.62 (1.03)
Change from Baseline in CGI Severity of Illness Score, Median ([3]; 30 mg, Week 6/Endpoint): −1.0
CGI severity of illness score, treatment effect (bifeprunox—placebo) ([3]; bifeprunox 20 mg): −0.13
mean change (SD) from Baseline to Endpoint in CGI severity of illness score ([3]; bifeprunox 20 mg): −0.63 (0.98)
CGI severity of illness score, treatment effect (bifeprunox—placebo) ([3]; bifeprunox 30 mg): −0.09
mean change (SD) from Baseline to Endpoint in CGI severity of illness score ([3]; bifeprunox 30 mg): −0.62 (1.03)
CDSS Total Score, Trt Effect ([4]; 20 mg versus placebo, Week 6, Endpoint): −0.54
Change from Baseline in CDSS Total Score, Mean (SD) ([4]; 20 mg, Week 1): −0.86 (2.87)
Change from Baseline in CDSS Total Score, Median ([4]; 20 mg, Week 1): 0.0
Change from Baseline in CDSS Total Score, Mean (SD) ([4]; 20 mg, Week 2): −1.19 (3.30)
Change from Baseline in CDSS Total Score, Median ([4]; 20 mg, Week 2): −1.0
Change from Baseline in CDSS Total Score, Mean (SD) ([4]; 20 mg, Week 3): −1.41 (3.72)
Change from Baseline in CDSS Total Score, Median ([4]; 20 mg, Week 3): −1.0
Change from Baseline in CDSS Total Score, Mean (SD) ([4]; 20 mg, Week 4): −1.35 (3.66)
Change from Baseline in CDSS Total Score, Median ([4]; 20 mg, Week 4): −1.0
Change from Baseline in CDSS Total Score, Mean (SD) ([4]; 20 mg, Week 6, Endpoint): −1.30 (3.85)
Change from Baseline in CDSS Total Score, Median ([4]; 20 mg, Week 6, Endpoint): 0.0
CDSS Total Score, Trt Effect ([4]; 30 mg versus placebo, Week 6, Endpoint): −0.34
Change from Baseline in CDSS Total Score, Mean (SD) ([4]; 30 mg, Week 1): −0.77 (2.63)
Change from Baseline in CDSS Total Score, Median ([4]; 30 mg, Week 1): 0.0
Change from Baseline in CDSS Total Score, Mean (SD) ([4]; 30 mg, Week 2): −0.69 (2.97)
Change from Baseline in CDSS Total Score, Median ([4]; 30 mg, Week 2): 0.0
Change from Baseline in CDSS Total Score, Mean (SD) ([4]; 30 mg, Week 3): −0.60 (3.10)
Change from Baseline in CDSS Total Score, Median ([4]; 30 mg, Week 3): 0.0
Change from Baseline in CDSS Total Score, Mean (SD) ([4]; 30 mg, Week 4): −0.65 (3.07)
Change from Baseline in CDSS Total Score, Median ([4]; 30 mg, Week 4): 0.0
Change from Baseline in CDSS Total Score, Mean (SD) ([4]; 30 mg, Week 6, Endpoint): −0.79 (3.02)
Change from Baseline in CDSS Total Score, Median ([4]; 30 mg, Week 6, Endpoint): −1.0
CDSS score, treatment effect (bifeprunox, placebo) ([4]; bifeprunox 20 mg (first mention)): −0.54
mean change (SD) from Baseline to Endpoint in CDSS score ([4]; bifeprunox 20 mg): −1.30 (3.85)
mean change (SD) from Baseline to Endpoint in CDSS score ([4]; bifeprunox 30 mg): −0.79 (3.02)
CDSS score, treatment effect (bifeprunox, placebo) ([4]; bifeprunox): −0.34
